pEC50: −log10 of the molar value. Where two headings read alike, the source gives them in different places.
Assays:
[1] = Cytotoxicity assay (CellTiter Blue); type: cell-based; settings: CellTiter Blue, cells treated 72 hours
Protocol: (§1) The cytotoxicity of compounds of Table 1 and of the additional therapeutic agents used in the compositions and methods of the present invention can be measure using the assay described below.
(§2) Compounds are ordered 1 or 2 days before the experiment. Compounds and cells are prepared using the method described in Example 2 for the RHEPLUC assay (See FIG. 1) or combination study (See FIG. 2)
(§3) After 3 day incubation of cells with individual test compounds, cytotoxicity is determined using CellTiter Blue as described in the assay protocol below.
(§4) The CellTiter Blue solution (4 mL) is diluted with 1× Dulbecco's PBS (16 mL). 5 μL of the resulting solution is added to each well of the 384 well assay plate containing cells treated with compound for 72 hours. The plate is shaken for 10 seconds, then incubated in 5% CO2 at 37° C. for 1 hour. The plate is then shaken again for 10 seconds and the fluorescence is measured at excitation wavelength 540 nm and emission wavelength 590 nm.
(§5) NOTE: cells (all genotypes and mutants) are cultured in DMEM/10% FBS in the presence of G418. During the assay G418 is absent.
(§6) For cytotoxicity assays data is analyzed to obtain the CC50 of each compound tested alone and in combination. The analysis uses the average of 100% cytotoxicity (media only without cells) and 0% cytotoxicity (100% viability, 0.5% DMSO in the presence of cells) to calculate the percentage of compound cytotoxicity and CC50 using the following 4 parameter equation:
(§7) Wherein average low=100% cytotoxicity (media only) and average high=100% viability (0.5% DMSO).
(§8) CC50 values were calculated for a selected Polycyclic Heterocycle Derivative of the present invention (compound 2) and for […] first additional therapeutic agents of the present invention. The therapeutic index for the selected compounds was also calculated, wherein TI=CC50/EC50.

[2] = system: replicon cells; test: Cytotoxicity assay (CellTiter Blue); type: cell-based; settings: TI=CC50/EC50
Protocol: as §1, §2, §3, §4, §5, §6, §7, §8

[3] = system: genotype 1a replicon cells; test: 3-day cell-based HCV replicon assay (Taqman); settings: Hepatitis C virus
Protocol: The replicon RNA level was measured using real time PCR (Taqman assay). […] EC50 was defined as the concentration of inhibitor necessary to achieve ΔCT=1 over the projected baseline; EC90 the concentration necessary to achieve ΔCT=3.2 over the baseline. Alternatively, to quantitate the absolute amount of replicon RNA, a standard curve was established by including serially diluted T7 transcripts of replicon RNA in the Taqman assay. All Taqman reagents were from PE Applied Biosystems. Such an assay procedure was described in detail in e.g. Malcolm et al., Antimicrobial Agents and Chemotherapy 50: 1013-1020 (2006).

[4] = system: HCV replicon; test: RHEPLUC assay (replicon luciferase, EC50 of single agents); type: cell-based, Hepatitis C virus (HCV); settings: Hepatitis C virus
Protocol: The previously determined EC50 for each test compound is then placed in the middle of the combination study titration curve.
Test compounds are ordered at 4000× final concentration, one or two days before the assay, and are diluted 1/10 in DMSO (400× concentration). The diluted first test compound (400×) is distributed in a first low dead volume plate as described in FIG. 1. The diluted second test compound (400×) is distributed in a second low dead volume plate as described in FIG. 2.
To obtain maximum luciferase signal (0% inhibition control), 100% DMSO is added to the 200× test compound mix plate. For minimum luciferase signal (100% inhibition control), a known NS5A inhibitor (Compound A, EC50 of 0.01 nM, made as described in International Patent Application No. PCT/US2010/028653) is used at 1 nM final concentration. Accordingly, 6 μL of 200 nM Compound A is added to the 200× test compound mix plate (see FIG. 4).
On the day of the experiment, Complete growth media (10 μL) is added to all wells in a 384 well assay plate, then 150 nL per well from the test compound mix plate is added to the assay plate.
The cell monolayer is rinsed with pre-warmed PBS (˜37° C.), then pre-warmed trypsin (0.25%, ˜37° C.) is added and the cells are incubated for 2 to 5 minutes in 5% CO2 at 37° C. Complete growth media is then added, cells are mixed and counted, and then diluted in complete growth media to a final concentration of 1.0×10^5 cells/mL. […]
Bright-Glo Luciferase reagent is prepared as specified by the kit instructions and kept in the dark until the reagent has reached room temperature. […] The plate is allowed to incubate for 5 minutes at room temperature, then the plate is placed on a reader within 30 minutes after incubation is complete, and the luminescence is monitored at 0.5 seconds per well.
Using the RHEPLUC assay, EC50 values were calculated prior to initiation of combination studies for a selected Polycyclic Heterocycle Derivative of the present invention (compound 2) and for two first additional therapeutic agents of the present invention (compounds F5 and F7).

[5] = system: genotype 1a replicon cells; test: 15-day cell-based HCV replicon curing assay; parameters: species or system Hepatitis C virus (HCV); settings: genotype 1a replicon cells treated 15 days
[6] = RHEPLUC assay, single agent, 72 hours incubation

SMILES	CC50 at 72 h [1] [nM]	Therapeutic Index [2]	EC90 ([3]; printed value is three times the EC90, read-out: 3×EC90) [nM]	pEC50 [4, 6]	NS3 (amino acid residues 1-180) population sequence analysis, resistance mutations [5]	pEC50 ([4]; known NS5A inhibitor used as 100% inhibition control, assay of the value not stated)	EC90 ([3]; printed as 1×EC90, read-out: EC90) [nM]
C=C[C@@H]1C[C@]1(NC(=O)[C@@H]1C[C@@H]2CN1C(=O)[C@H](C(C)(C)C)NC(=O)O[C@@H]1C[C@H]1CCCCCc1nc3ccc(OC)cc3nc1O2)C(=O)NS(=O)(=O)C1CC1 [Compound F5]	35000	108865	7.5	9.49	low levels of D168G and P88A		
COC(=O)NC(C(=O)N1CCC[C@H]1c1ncc(-c2ccc3oc(-c4ccc(-c5cnc([C@@H]6CCCN6C(=O)[C@H](NC(=O)OC)c6ccccc6)[nH]5)cc4)cc3c2)[nH]1)c1ccccc1 (stereo partly shown) [Compound A, reference compound]						11.00	
COC(=O)N[C@H](C(=O)N1CCC[C@H]1c1ncc(-c2ccc(-c3cc4cc(-c5cnc([C@@H]6CCCN6C(=O)[C@@H](NC(=O)OC)C(C)C)[nH]5)ccc4o3)cc2)[nH]1)C(C)C [Compound 2]	9700	2425000		11.40			0.006
